Assay results reported in patent US20200352918A1, “COMPOUNDS AND METHODS FOR TREATING OR PREVENTING FIBROSIS” (priority 2019, published 2020).

Assays:
[1] = system: iFA phenotype of mesenchymal-like cells on 13 kPa hydrogels; experiment: iFA-prevention phenotypic high-content drug screen (iFA model); assay type: cell-based, human
Experimental: Mesenchymal-like cells were cultured on 13 kPa functionalized polyacrylamide gels that were prepared as follows. 187.5 μl of 40% acrylamide, 60 μl of 2% bis-acrylamide and 8.55 μl of sodium bisulfate in a final volume of 990 μl of water was incubated for 20 min at room temperature to degas the mixture. To this mixture, 0.10% ammonium persulfate and 0.15% TEMED were added, mixed and 100 μl of the solution was added onto a 0.4% 3-(Trimethoxysily) propyl methacrylate pH 3.5 treated coverslip. A 2% dimethyl dichlorosilane in chloroform treated round glass coverslip was then inverted on the acrylamide solution and allowed to polymerize for 15 min between the two surfaces. The top coverslip was gently removed, and the bottom coverslips with the hydrogel were transferred to appropriate multi-well low adherent tissue culture plate containing coupling buffer (0.1 M sodium phosphate dibasic, 0.1 M sodium phosphate monobasic) pH 8. To functionalize the hydrogel, 1 part of 0.1 M p-benzoquinone in dioxane was added to the hydrogels containing 4 parts of coupling buffer and incubated at 37° C. for 30 min. The gel was then successively washed with 20% dioxane in water, water, 0.1 M sodium acetate buffer at pH 4.0 containing 1.0 M sodium chloride, 0.1 M sodium bicarbonate solution at pH 8.5 containing 1.0 M sodium chloride, and finally with coupling buffer at pH 7.5. The hydrogels were then coated with 0.1% gelatin for 2 hrs prior to seeding the cells. Cells were seeded at a density of 3000 cells/cm^2.
A phenotypic high-content drug screen was prepared to identify compounds capable of preventing the iFA phenotype in a 96-well format. An ImageXpress XL high-throughput imager with a 4× Plan objective (N/A 0.20) was used with image based focusing. Briefly, 100 μL media were plated in each well of 96 well plate using a Thermo Multidrop non-contact dispenser. Using a custom V&P pin tool mounted to a Beckman FX liquid handler, 1.5 μL compounds or DMSO were added. Mesenchymal-like cells were added as a suspension using the Multidrop at a density of 3.5×10^3 cells/well. The resulting compound concentration was 10 μM. Cells were imaged after 7 days of incubation at 37° C. and 5% CO2: A final of 0.5 μg/ml of Calcein AM and/or 10 μg/ml propidium iodide (viability dye) with 1 μg/ml Hoechst 33342 were added and imaged using the ImageXpress XL system. Data mining was performed using a custom module consisting of the following steps: The image background was removed using a top-hat filter with 25 μm round shape polisher. Next, cellular aggregates and individual spindle-shaped cells were identified. Aggregates of cells were defined by size with a cut-off of 60 to 200 micron and an intensity of at least 200 gray scales over background. Individual spindle-shaped cells were identified as smaller objects with cut-offs from 15 to 100 micron and a lower intensity of at least 70 gray scales over background.
Additional morphometric measurements were made by counting labeled cell nuclei and measuring total area covered with cells per well. The data resulting from the screen were batch exported through MetaXpress and uploaded into a Collaborative Drug Discovery (CDD) cloud based database (Ekins and Bunin, 2013, Methods in molecular biology 993, 139-154.). Hits were selected on a cut-off of more than 3 standard deviations from mean using data normalized to reference wells in each plate. IC50 values (the half maximal inhibitory concentration) from confirmation experiments were calculated from dose-response signal curves using the Prism software (GraphPad Software).
Signal-to-background (S/B) ratio, standard variation and variation coefficients were calculated as the signal of DMSO treated wells divided by the signal of the hit compound (AA5) treated wells. […]

SSEA4+ cells = experiment: FACS of SSEA4+ cells in the iFA model; assay type: cell-based, human; settings: AA5 treatment
Experimental: For determination of various cell populations in the iFA model, the cells were dissociated using Accumax (Stem Cell Technologies) for 5 minutes, pelleted and resuspended in FACS buffer (3% Fetal Bovine Serum/PBS). 1×10^6 cells were incubated with a the appropriate conjugated antibody listed in Table 3 for 20 minutes at 4° C. under shaking conditions. The cells were washed with the FACS buffer and acquired using a flow cytometer (BD LSRII) and analysed using FACS Diva and FlowJo softwares.

ocular mucosal fibrosis = experiment: Murine model of ocular mucosal fibrosis (OVA induced); assay type: in vivo, mice
Experimental: Female […] mice 8-10 week of age were used for all experiments. The mice were housed in the institute's vivarium in compliance with the Animal Research Committee. Immune-mediated conjunctivitis was induced in by i.p. injection of 200 μl of immunization mix containing: 10 μg Ovalbumin (OVA) (Sigma-Aldrich), 4 mg aluminium hydroxide (Thermo Scientific), and 300 ng of pertussis toxin (Sigma-Aldrich). After 2 weeks, mice received topical OVA challenge ([…]) once a day for 7 days for the development of fibrosis. To evaluate the efficacy of AA5 in preventing fibrosis, topical OVA challenge was accompanied by addition of 1, 10, 100 or 1000 ug/mouse (n=12) AA5 administered in both eyes in a volume of 5 ul for a total of 7 days.
To evaluate the efficacy of AA5 in resolving fibrosis, topical OVA challenge was continued for an additional 7 days (days 14-21) after the initial OVA sensitization for the development of fibrosis. From day 21 to 28, OVA challenge was accompanied by addition of 1, 10, 100 or 1000 ug/mouse (n=12) AA5. 1% DMSO administered in both eyes in a 5 µl volume of PBS was used as control. Both eyes were scored in the same manner. For the scoring, a cumulative score of eyelid swelling (out of 3) and tearing (out of 3) was taken. At the end of the experiment at day 21 (prevention studies) or […] (resolution studies), mice were sacrificed and whole eyes were collected, fixed in 10% (v/v) formalin and processed by the standard methods for paraffin embedding. Sections (5 μm) were stained with Gomori Trichrome and H&E and imaged. Tissue sections were reviewed by 4 independent observers, including two observers who were blinded to the groups—a pathologist and another researcher. Conjunctivae were dissected from whole eyes and either processed for RNA or hydroxyproline.
Conjunctiva or LSCs were boiled in 50 μl or 400 μl of 6 M HCl, respectively at 100° C. overnight. Hydroxyproline levels were measured in the acid hydrolysis method using a kit from Biovision Inc. (Milpitas, Calif.) using the manufacturer's instructions. […]

IC50 ([1]; Homo sapiens, FIG. 16B, read-out: IC50 (dose response, iFA phenotype)): 900 nM
SMILES: Cc1c(C(=O)Nc2nc3ccccc3s2)sc2nc3cc4c(cc3cc12)OCO4 [AA5]
Prevention of the iFA phenotype ([1]; 0.6 μM-10 μM AA5, Calcein AM / Hoechst 33342 (FIG. 17A)): Full prevention of phenotype was seen at low micromolar concentrations
Dose response ([1]; 20 point dose course, picomolar to millimolar): +++ (+++ = strong effect)
Efficacy in secondary screen ([1]; assay repeated with compound sourced commercially or from additional library materials): +++ (+++ = strong effect)
Efficacy in primary screen ([1]; library compound plated with cells on day 1 on hydrogel, phenotype on day 7, 10 μM): +++ (+++ = strong effect)
Percentages of SSEA4+ cells (SSEA4+ cells): attenuated
Gomori Trichrome sections of whole eyes: conjunctiva thickness and collagen deposition (ocular mucosal fibrosis; AA5 1000 ug): qualitatively decreased thickness of conjunctiva and collagen deposition
Collagen content of the conjunctivae (ocular mucosal fibrosis; AA5-prevention and AA5-resolution at 0.1 and 1 mg doses): significant reduction
Clinical swelling, tearing and inflammation of eyes (ocular mucosal fibrosis; topical, preventive and resolutive treatments, vs DMSO-treated eyes): less clinical swelling, tearing and inflammation
